Results from patent US20250368649A1, “TETRAHYDROPYRIDOPYRIMIDINE PAN-KRAS INHIBITORS” (Mirati Therapeutics, Inc., priority 2022, published 2025).

How the values were obtained:
[1] = tested on: H727 cells; assay: Inhibition of KRas-mediated phosphorylation of ERK (Cisbio HTRF pERK), H727 cells; type: cell-based; conditions: Homo sapiens; for IC50: NCI-H727, 3 h, 3 hr compound incubation; for inhibition at 0.1 µM: NCI-H727, single point at 100 nM, 3 hrs compound incubation
[2] = tested on: HCT116 cells; assay: Inhibition of KRas-mediated phosphorylation of ERK (Cisbio HTRF pERK), HCT116 cells; type: cell-based; conditions: Homo sapiens, HCT-116, single point at 100 nM, 3 hrs compound incubation
[3] = target: KRas Q61H (Homo sapiens, UniProt P01116, Q61H); assay: KRas binding assay (TR-FRET displacement), KRas Q61H; conditions: for inhibition at 0.01 µM: single point, 10 nM compound; for IC50: TR-FRET displacement
Sequence of KRas Q61H (P01116 1-169 isoform P01116-2 Q61H): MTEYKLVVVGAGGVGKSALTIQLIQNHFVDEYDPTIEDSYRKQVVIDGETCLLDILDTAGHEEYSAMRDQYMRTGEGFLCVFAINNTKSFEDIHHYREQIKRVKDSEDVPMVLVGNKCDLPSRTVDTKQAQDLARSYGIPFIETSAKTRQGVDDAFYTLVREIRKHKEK

[4] = tested on: H460 cells; assay: Inhibition of KRas-mediated phosphorylation of ERK (Cisbio HTRF pERK), H460 cells; type: cell-based; conditions: Homo sapiens, NCI-H460, single point at 100 nM, 3 hrs compound incubation
[5] = target: KRas G12R (Homo sapiens, UniProt P01116, G12R); assay: biochemical; conditions: Binding to KRas (IC50 nM) G12R, TR-FRET displacement, KRas G12R
Sequence of KRas G12R (P01116 1-169 isoform P01116-2 G12R): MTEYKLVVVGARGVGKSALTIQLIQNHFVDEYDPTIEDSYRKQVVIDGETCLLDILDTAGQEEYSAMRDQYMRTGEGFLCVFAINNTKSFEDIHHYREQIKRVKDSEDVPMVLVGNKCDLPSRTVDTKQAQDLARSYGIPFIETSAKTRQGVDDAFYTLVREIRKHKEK

[6] = target: KRas G12A (Homo sapiens, UniProt P01116, G12A); type: binding; conditions: for inhibition at 0.01 µM: single point, 10 nM compound, read-out: Binding to KRas (% inhibition at 10 nM) G12A; for IC50: TR-FRET displacement, read-out: Binding to KRas (IC50 nM) G12A
Sequence of KRas G12A (P01116 1-169 isoform P01116-2 G12A): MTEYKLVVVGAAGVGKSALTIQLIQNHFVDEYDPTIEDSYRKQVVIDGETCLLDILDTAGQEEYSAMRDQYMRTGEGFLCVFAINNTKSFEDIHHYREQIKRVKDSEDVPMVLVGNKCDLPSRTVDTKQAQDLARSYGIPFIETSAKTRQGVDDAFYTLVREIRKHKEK

[7] = tested on: A549 cells; assay: Inhibition of KRas-mediated phosphorylation of ERK (Cisbio HTRF pERK), A549 cells; type: cell-based; conditions: Homo sapiens; for inhibition at 0.1 µM: single point at 100 nM, 3 hrs compound incubation; for IC50: A549, 3 h, 3 hr compound incubation
[8] = tested on: ASPC1 cells; assay: Inhibition of KRas-mediated phosphorylation of ERK (Cisbio HTRF pERK), ASPC1 cells; type: cell-based; conditions: Homo sapiens, AsPC-1 cells; for IC50: ASPC1, 3 h, 3 hr compound incubation; for inhibition at 0.1 µM: ASPC1, single point at 100 nM, 3 hrs compound incubation
[9] = target: KRas WT (Homo sapiens, UniProt P01116); assay: KRas binding assay (TR-FRET displacement), KRas WT; conditions: for inhibition at 0.01 µM: single point, 10 nM compound; for IC50: TR-FRET displacement
Sequence of KRas WT (P01116 1-169 isoform P01116-2): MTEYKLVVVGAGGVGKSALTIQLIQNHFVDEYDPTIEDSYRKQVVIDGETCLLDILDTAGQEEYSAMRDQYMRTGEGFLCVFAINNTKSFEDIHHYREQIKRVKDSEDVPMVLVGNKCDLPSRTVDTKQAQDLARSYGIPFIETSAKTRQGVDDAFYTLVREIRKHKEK

[10] = tested on: H358 cells; assay: Inhibition of KRas-mediated phosphorylation of ERK (Cisbio HTRF pERK), H358 cells; type: cell-based; conditions: Homo sapiens; for inhibition at 0.1 µM: NCI-H358, single point at 100 nM, 3 hrs compound incubation; for IC50: NCI-H358, 3 h, 3 hr compound incubation
[11] = target: KRas G13D (Homo sapiens, UniProt P01116, G13D); type: binding; conditions: for inhibition at 0.01 µM: single point, 10 nM compound, read-out: Binding to KRas (% inhibition at 10 nM) G13D; for IC50: TR-FRET displacement, read-out: Binding to KRas (IC50 nM) G13D
Sequence of KRas G13D (P01116 1-169 isoform P01116-2 G13D): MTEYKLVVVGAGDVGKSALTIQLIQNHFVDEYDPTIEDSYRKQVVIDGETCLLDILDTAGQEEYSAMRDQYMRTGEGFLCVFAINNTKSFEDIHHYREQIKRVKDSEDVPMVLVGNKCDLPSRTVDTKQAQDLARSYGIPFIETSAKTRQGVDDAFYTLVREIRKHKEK

[12] = target: KRas G12C (Homo sapiens, UniProt P01116, G12C); type: binding; conditions: for inhibition at 0.01 µM: single point, 10 nM compound, read-out: Binding to KRas (% inhibition at 10 nM) G12C; for IC50: TR-FRET displacement, read-out: Binding to KRas (IC50 nM) G12C
Sequence of KRas G12C (P01116 1-169 isoform P01116-2 G12C): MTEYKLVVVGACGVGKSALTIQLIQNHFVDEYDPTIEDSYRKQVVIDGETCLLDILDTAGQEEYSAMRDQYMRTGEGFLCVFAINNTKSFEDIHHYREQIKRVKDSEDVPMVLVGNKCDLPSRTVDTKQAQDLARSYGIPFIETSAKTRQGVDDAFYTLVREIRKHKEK

[13] = target: KRas G12D (Homo sapiens, UniProt P01116, G12D); assay: biochemical; conditions: Binding to KRas (IC50 nM) G12D, TR-FRET displacement, KRas G12D
Sequence of KRas G12D (P01116 1-169 isoform P01116-2 G12D): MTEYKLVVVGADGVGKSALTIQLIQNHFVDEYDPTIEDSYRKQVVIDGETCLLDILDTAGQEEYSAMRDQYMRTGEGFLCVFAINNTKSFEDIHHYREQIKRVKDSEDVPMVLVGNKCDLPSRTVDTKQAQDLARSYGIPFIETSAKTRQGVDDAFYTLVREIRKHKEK

[14] = target: KRas G12V (Homo sapiens, UniProt P01116, G12V); assay: biochemical; conditions: Binding to KRas (IC50 nM) G12V, TR-FRET displacement, KRas G12V
Sequence of KRas G12V (P01116 1-169 isoform P01116-2 G12V): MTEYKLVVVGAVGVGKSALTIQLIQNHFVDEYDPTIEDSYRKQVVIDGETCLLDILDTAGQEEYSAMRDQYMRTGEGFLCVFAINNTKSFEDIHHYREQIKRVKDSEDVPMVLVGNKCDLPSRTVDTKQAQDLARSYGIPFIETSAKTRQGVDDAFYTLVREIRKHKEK

[15] = target: KRas G12S (Homo sapiens, UniProt P01116, G12S); type: binding; conditions: for inhibition at 0.01 µM: single point, 10 nM compound, read-out: Binding to KRas (% inhibition at 10 nM) G12S; for IC50: TR-FRET displacement, read-out: Binding to KRas (IC50 nM) G12S
Sequence of KRas G12S (P01116 1-169 isoform P01116-2 G12S): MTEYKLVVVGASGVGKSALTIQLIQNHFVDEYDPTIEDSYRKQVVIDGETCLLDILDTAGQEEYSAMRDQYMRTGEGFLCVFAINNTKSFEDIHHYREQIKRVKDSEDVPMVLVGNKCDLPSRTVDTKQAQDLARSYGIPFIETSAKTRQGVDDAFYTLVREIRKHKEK

[16] = tested on: PSN1 cells; assay: Inhibition of KRas-mediated phosphorylation of ERK (Cisbio HTRF pERK), PSN1 cells; type: cell-based; conditions: Homo sapiens, PSN1, 3 h, 3 hour compound incubation, Cisbio pERK HTRF
Experimental: (§1) Inhibition of KRas Phosphorylation of ERK (HTRF) by Exemplary Compounds of Formula (I) Cisbio HTRF Advanced pERK Assay Catalog #64AERPEH • Cells: MKN1, PSN1 • Procedure: • Day 1: Seed 6,000 cells/well -25 µl/well in 384-well white solid bottom plate; RPM1_10% FBS.

[17] = tested on: MKN1 cells; assay: Inhibition of KRas-mediated phosphorylation of ERK (Cisbio HTRF pERK), MKN1 cells; type: cell-based; conditions: Homo sapiens
Experimental: as §1

[18] = MKN-1, 3 hr compound incubation

SMILES | IC50 ([1]; Cisbio pERK HTRF) [nM] | inhibition at 0.01 µM [3] [%] | IC50 [5] [nM] | inhibition at 0.01 µM [6] [%] | IC50 ([8]; Cisbio pERK HTRF) [nM] | inhibition at 0.01 µM [9] [%] | inhibition at 0.01 µM [11] [%] | inhibition at 0.01 µM [12] [%] | IC50 [13] [nM] | IC50 [14] [nM] | inhibition at 0.01 µM [15] [%] | IC50 [9] [nM] | IC50 [12] [nM] | IC50 [15] [nM] | inhibition at 0.1 µM [1] [%] | inhibition at 0.1 µM [2] [%] | inhibition at 0.1 µM [4] [%] | inhibition at 0.1 µM [7] [%] | inhibition at 0.1 µM [8] [%] | inhibition at 0.1 µM [10] [%] | other results
CCc1c(F)ccc2cc(O)cc(N3CCc4c(nc(OC[C@@]56CCCN5C[C@H](F)C6)nc4N4CCCn5nc(C(=O)N6CC7CCC6CN7)cc5C4)C3)c12 (stereo partly drawn) [Example 264, 2,5-diazabicyclo[2.2.2]octan-2-yl(5-(7-(8-ethyl-7-fluoro-3-hydroxynaphthalen-1-yl)-2-(((2R,7aS)-2-fluorohexahydro-1H-pyrrolizin-7a-yl)methoxy)-5,6,7,8-tetrahydropyrido[3,4-d]pyrimidin-4-yl)-5,6,7,8-tetrahydro-4H-pyrazolo[1,5-a][1,4]diazepin-2-yl)methanone] | 259 | 98 | < 2 | 95 | 51 | 96 | 97 | 100 | < 2 | < 2 | 99 |  |  |  | 22 | -7 | 0 | 15 | 34 | 43 | 
CCc1c(F)ccc2cc(O)cc(N3CCc4c(nc(OC[C@@]56CCCN5C[C@H](F)C6)nc4N4CCCn5nc(CN(C)C(=O)N(C)C)cc5C4)C3)c12 [Example 288, 1-((5-(7-(8-ethyl-7-fluoro-3-hydroxynaphthalen-1-yl)-2-(((2R,7aS)-2-fluorohexahydro-1H-pyrrolizin-7a-yl)methoxy)-5,6,7,8-tetrahydropyrido[3,4-d]pyrimidin-4-yl)-5,6,7,8-tetrahydro-4H-pyrazolo[1,5-a][1,4]diazepin-2-yl)methyl)-1,3,3-trimethylurea] | 189 | 33 | 9 | 38 | 67 | 38 | 40 | 56 | 4 | 6 | 53 |  |  |  |  | 17 | 3 | 22 |  | 26 | 
CCc1c(F)ccc2cc(O)cc(N3CCc4c(nc(OC[C@@]56CCCN5C[C@H](F)C6)nc4N4CCCc5nc(C(=O)N(C)C)sc5C4)C3)c12 [Example 304, 5-(7-(8-ethyl-7-fluoro-3-hydroxynaphthalen-1-yl)-2-(((2R,7aS)-2-fluorohexahydro-1H-pyrrolizin-7a-yl)methoxy)-5,6,7,8-tetrahydropyrido[3,4-d]pyrimidin-4-yl)-N,N-dimethyl-5,6,7,8-tetrahydro-4H-thiazolo[5,4-c]azepine-2-carboxamide] | 180 | 73 | 3 | 63 | 54 | 70 | 72 | 83 | 3 | 3 | 77 |  |  |  |  | -15 | 25 | 33 |  | 43 | 
CCc1c(F)ccc2cc(O)cc(N3CCc4c(nc(OC[C@@]56CCCN5C[C@H](F)C6)nc4NCC4CNS(=O)(=O)N4)C3)c12 (stereo partly drawn) [Example 410, 3-(((7-(8-ethyl-7-fluoro-3-hydroxynaphthalen-1-yl)-2-(((2R,7aS)-2-fluorohexahydro-1H-pyrrolizin-7a-yl)methoxy)-5,6,7,8-tetrahydropyrido[3,4-d]pyrimidin-4-yl)amino)methyl)-1,2,5-thiadiazolidine 1,1-dioxide] | 1670 |  | 7 |  | > 10000 |  |  |  | 18 | 4 |  |  |  |  |  |  |  |  |  |  | IC50 [16]: > 10000 nM; IC50 ([17]; MKN-1, 3 hour compound incubation, Cisbio pERK HTRF): 217 nM
CC1(O)COCCN(c2nc(OCC34CCCN3CCC4)nc3c2CCN(c2cc(O)cc(Cl)c2C2CC2)C3)C1 (stereo not drawn) [Example 436, 4-(7-(3-chloro-2-cyclopropyl-5-hydroxyphenyl)-2-((tetrahydro-1H-pyrrolizin-7a(5H)-yl)methoxy)-5,6,7,8-tetrahydropyrido[3,4-d]pyrimidin-4-yl)-6-methyl-1,4-oxazepan-6-ol] | 2950 |  | 17 |  | 1760 |  |  |  | 7 | 8 |  | 10 | 8 | 10 | 12 | 5 | -4 | 3 | -12 | 10 | IC50 [3]: 10 nM; IC50 [6]: 11 nM; IC50 [11]: 10 nM

Now from value to compound, other results behind:

IC50 ([1]; Cisbio pERK HTRF) [nM] | inhibition at 0.01 µM [3] [%] | IC50 [5] [nM] | inhibition at 0.01 µM [6] [%] | IC50 ([8]; Cisbio pERK HTRF) [nM] | inhibition at 0.01 µM [9] [%] | inhibition at 0.01 µM [11] [%] | inhibition at 0.01 µM [12] [%] | IC50 [13] [nM] | IC50 [14] [nM] | inhibition at 0.01 µM [15] [%] | IC50 [9] [nM] | IC50 [12] [nM] | IC50 [15] [nM] | SMILES | inhibition at 0.1 µM [1] [%] | inhibition at 0.1 µM [2] [%] | inhibition at 0.1 µM [4] [%] | inhibition at 0.1 µM [7] [%] | inhibition at 0.1 µM [8] [%] | inhibition at 0.1 µM [10] [%] | other results
> 10000 |  | 7 |  | > 10000 |  |  |  | 16 | 7 |  | 9 | 6 | 9 | Cc1cc2[nH]ncc2c(N2CCc3c(nc(OCC4(CN(C)C)CC4)nc3N3CCC[C@]4(C3)NC(=O)NC4=O)C2)c1C [Example 462, (R)-7-(7-(5,6-dimethyl-1H-indazol-4-yl)-2-((1-((dimethylamino)methyl)cyclopropyl)methoxy)-5,6,7,8-tetrahydropyrido[3,4-d]pyrimidin-4-yl)-1,3,7-triazaspiro[4.5]decane-2,4-dione] | -8 | 3 | 9 | 8 | -6 | 1 | IC50 [3]: 10 nM; IC50 [6]: 10 nM; IC50 [11]: 9 nM
 |  |  |  |  |  |  |  | 3 | < 2 |  | < 2 | < 2 | < 2 | C=C1CN2CCCC2(COc2nc3c(c(N4CCCC5(CC(O)C5)C4)n2)CCN(c2cc(O)cc4ccc(F)c(CC)c24)C3)C1 (stereo not drawn) [Example 660, 6-(7-(8-ethyl-7-fluoro-3-hydroxynaphthalen-1-yl)-2-((2-methylenetetrahydro-1H-pyrrolizin-7a(5H)-yl)methoxy)-5,6,7,8-tetrahydropyrido[3,4-d]pyrimidin-4-yl)-6-azaspiro[3.5]nonan-2-ol] |  |  |  |  |  |  | IC50 [1]: 204 nM; IC50 [17, 18]: 28.2 nM; IC50 [7]: 131 nM; IC50 [8]: 261 nM; IC50 [10]: 25 nM
 |  |  |  |  |  |  |  | 143 | 33 |  | 25 | 32 | 21 | C=C1CN2CCCC2(COc2nc3c(c(N4CC5CC(O)CC4C5)n2)CCN(c2cc(O)cc4ccc(F)c(CC)c24)C3)C1 (stereo not drawn) [Example 661, 6-(7-(8-ethyl-7-fluoro-3-hydroxynaphthalen-1-yl)-2-((2-methylenetetrahydro-1H-pyrrolizin-7a(5H)-yl)methoxy)-5,6,7,8-tetrahydropyrido[3,4-d]pyrimidin-4-yl)-6-azabicyclo[3.2.1]octan-3-ol] |  |  |  |  |  |  | IC50 [1]: 4780 nM; IC50 [17, 18]: 1380 nM; IC50 [7]: 3800 nM; IC50 [8]: > 10000 nM; IC50 [10]: 864 nM
